Patent US20260013501A1, “HERBICIDAL DERIVATIVES” (SYNGENTA CROP PROTECTION AG, priority 2022, published 2026)

Key:
Assay type in all cases: in vivo
Conditions in all cases: evaluated after 13 days
[1] = test system: Amaranthus palmeri (AMAPA); test: Post-emergence Test (Table B2), AMAPA; parameters: key: five-point scale: 5=81-100%, 4=61-80%, 3=41-60%, 2=21-40%, 1=0-20% damage
Description: (§1) Seeds of a variety of test species are sown in standard soil in pots (Ipomoea hederacea (IPOHE), Zea mays (ZEAMX), Echinochloa crus-galli (ECHCG), Amaranthus palmeri (AMAPA), (Amaranthus retoflexus (AMARE), and (Setaria faberi (SETFA)). After 8 days cultivation under controlled conditions in a glasshouse (at 24° C./16° C., day/night; 14 hours light; 65% humidity), the plants are sprayed with an aqueous spray solution derived from the formulation of the technical active ingredient in acetone/water (50:50) solution containing 0.5% Tween 20 (polyoxyethelyene sorbitan monolaurate, CAS RN 9005-64-5). Rate of application is shown in g/ha in the tables below. The test plants are then grown in a glasshouse under controlled conditions in a glasshouse (at 24° C./16° C., day/night; 14 hours light; 65% humidity) and watered twice daily. After 13 days the test is evaluated for the percentage damage caused to the plant. The biological activities are shown in the following table on a five-point scale (5=81-100%; 4=61-80%; 3=41-60%; 2=21-40%; 1=0-20%; -=not tested).

Setaria faberi (SETFA) = test: Post-emergence Test (Table B2), SETFA; parameters: key: five-point scale: 5=81-100%, 4=61-80%, 3=41-60%, 2=21-40%, 1=0-20% damage
Description: as §1

[2] = test system: Echinochloa crus-galli (ECHCG); test: Post-emergence Test (Table B2), ECHCG; parameters: key: 5-point damage scale: 5=81-100%, 4=61-80%, 3=41-60%, 2=21-40%, 1=0-20%
Description: as §1

[3] = test system: Amaranthus retoflexus (AMARE); test: Post-emergence Test (Table B2), AMARE; parameters: key: five-point scale: 5=81-100%, 4=61-80%, 3=41-60%, 2=21-40%, 1=0-20% damage
Description: as §1

Zea mays (ZEAMX) [4] = test: Post-emergence Test (Table B2), ZEAMX; parameters: key: 5-point damage scale: 5=81-100%, 4=61-80%, 3=41-60%, 2=21-40%, 1=0-20%
Outline: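 Evaluation 13 days post-spray gives percent plant damage, reported in five 20% bands (1=0-20% up to 5=81-100%). Test species, sown in soil and kept at 24/16 °C day/night with 14 h light, are treated with compound in 50:50 acetone/water plus 0.5% Tween 20, applied per g/ha.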

Zea mays (ZEAMX) [5] = test: Pre-emergence Test (Table B1), ZEAMX
[6] = test system: Amaranthus retoflexus (AMARE); test: Pre-emergence Test (Table B1), AMARE
[7] = test system: Amaranthus palmeri (AMAPA); test: Pre-emergence Test (Table B1), AMAPA
[8] = test system: Ipomoea hederacea (IPOHE); test: Pre-emergence Test (Table B1), IPOHE
[9] = test system: Echinochloa crus-galli (ECHCG); test: Pre-emergence Test (Table B1), ECHCG

CCn1c(Cc2ccc(C#N)c(=O)[nH]2)cc(=O)c(C(=O)O)c1-c1ccc(Cl)c(Cl)c1 [Compound 114, 6-[(5-cyano-6-oxo-1H-pyridin-2-yl)methyl]-2-(3,4-dichlorophenyl)-1-ethyl-4-oxo-pyridine-3-carboxylic acid]
0: percentage damage caused to the plant, AMAPA ([1]; rate 250 g/Ha) | percentage damage caused to the plant, SETFA (Setaria faberi (SETFA); rate 250 g/Ha) | percentage damage caused to the plant, ECHCG ([2]; rate 250 g/Ha) | percentage damage caused to the plant, AMARE ([3]; rate 250 g/Ha) | percentage damage caused to the plant, ZEAMX (Zea mays (ZEAMX) [4]; rate 250 g/Ha)

CCn1c(Cc2ccc(OC)cc2Cl)cc(=O)c(C(=O)O)c1-c1ccc(Cl)c(Cl)c1 [Compound 69, 6-[(2-chloro-4-methoxy-phenyl)methyl]-2-(3,4-dichlorophenyl)-1-ethyl-4-oxo-pyridine-3-carboxylic acid]
0: Pre-emergence Test, percentage damage caused to the plant (five-point scale), ZEAMX (Zea mays (ZEAMX) [5]; Rate 1000 g/Ha) | Pre-emergence Test, percentage damage caused to the plant (five-point scale), AMARE ([6]; Rate 1000 g/Ha) | Pre-emergence Test, percentage damage caused to the plant (five-point scale), AMAPA ([7]; Rate 1000 g/Ha) | Pre-emergence Test, percentage damage caused to the plant (five-point scale), IPOHE ([8]; Rate 1000 g/Ha) | percentage damage caused to the plant, AMAPA ([1]; rate 1000 g/Ha) | percentage damage caused to the plant, ECHCG ([2]; rate 1000 g/Ha) | percentage damage caused to the plant, AMARE ([3]; rate 1000 g/Ha)

CCn1c(Cc2ccc(F)cc2Cl)cc(=O)c(C(=O)O)c1-c1ccc(Cl)c(Cl)c1 [Compound 68, 6-[(2-chloro-4-fluoro-phenyl)methyl]-2-(3,4-dichlorophenyl)-1-ethyl-4-oxo-3-pyridine-3-carboxylic acid]
0: Pre-emergence Test, percentage damage caused to the plant (five-point scale), ZEAMX (Zea mays (ZEAMX) [5]; Rate 1000 g/Ha) | Pre-emergence Test, percentage damage caused to the plant (five-point scale), IPOHE ([8]; Rate 1000 g/Ha) | percentage damage caused to the plant, AMAPA ([1]; rate 1000 g/Ha) | percentage damage caused to the plant, ECHCG ([2]; rate 1000 g/Ha) | percentage damage caused to the plant, AMARE ([3]; rate 1000 g/Ha)

CCn1c(Cc2cncc(Cl)c2)cc(=O)c(C(=O)O)c1-c1ccc(Cl)c(Cl)c1 [Compound 17, 6-[(5-chloro-3-pyridyl)methyl]-2-(3,4-dichlorophenyl]-1-ethyl-4-oxo-pyridine-3-carboxylic acid]
0: Pre-emergence Test, percentage damage caused to the plant (five-point scale), ZEAMX (Zea mays (ZEAMX) [5]; Rate 250 g/Ha) | Pre-emergence Test, percentage damage caused to the plant (five-point scale), AMARE ([6]; Rate 250 g/Ha) | Pre-emergence Test, percentage damage caused to the plant (five-point scale), AMAPA ([7]; Rate 250 g/Ha) | Pre-emergence Test, percentage damage caused to the plant (five-point scale), IPOHE ([8]; Rate 250 g/Ha) | percentage damage caused to the plant, AMAPA ([1]; rate 250 g/Ha) | Pre-emergence Test, percentage damage caused to the plant (five-point scale), ECHCG ([9]; Rate 250 g/Ha) | percentage damage caused to the plant, ECHCG ([2]; rate 250 g/Ha) | percentage damage caused to the plant, AMARE ([3]; rate 250 g/Ha) | percentage damage caused to the plant, ZEAMX (Zea mays (ZEAMX) [4]; rate 250 g/Ha)

CCn1c(Cc2ccc(OC)cc2F)cc(=O)c(C(=O)O)c1-c1ccc(Cl)c(Cl)c1 [Compound 89, 2-(3,4-dichlorophenyl)-1-ethyl-6-[(2-fluoro-4-methoxy-phenyl)methyl]-4-oxo-pyridine-3-carboxylic acid]
0: Pre-emergence Test, percentage damage caused to the plant (five-point scale), ZEAMX (Zea mays (ZEAMX) [5]; Rate 250 g/Ha) | Pre-emergence Test, percentage damage caused to the plant (five-point scale), IPOHE ([8]; Rate 250 g/Ha) | percentage damage caused to the plant, AMAPA ([1]; rate 250 g/Ha) | percentage damage caused to the plant, SETFA (Setaria faberi (SETFA); rate 250 g/Ha) | percentage damage caused to the plant, ECHCG ([2]; rate 250 g/Ha) | percentage damage caused to the plant, AMARE ([3]; rate 250 g/Ha)

CCn1c(Cc2cc(C)n(C)n2)cc(=O)c(C(=O)O)c1-c1ccc(Cl)c(Cl)c1 [Compound 120, 2-(3,4-dichlorophenyl)-6-[(1,5-dimethylpyrazol-3-yl)methyl]-1-ethyl-4-oxo-pyridine-3-carboxylic acid]
0: Pre-emergence Test, percentage damage caused to the plant (five-point scale), ZEAMX (Zea mays (ZEAMX) [5]; Rate 250 g/Ha) | Pre-emergence Test, percentage damage caused to the plant (five-point scale), AMARE ([6]; Rate 250 g/Ha) | Pre-emergence Test, percentage damage caused to the plant (five-point scale), AMAPA ([7]; Rate 250 g/Ha) | Pre-emergence Test, percentage damage caused to the plant (five-point scale), IPOHE ([8]; Rate 250 g/Ha) | percentage damage caused to the plant, AMAPA ([1]; rate 250 g/Ha) | Pre-emergence Test, percentage damage caused to the plant (five-point scale), ECHCG ([9]; Rate 250 g/Ha) | percentage damage caused to the plant, AMARE ([3]; rate 250 g/Ha)

CCn1c(Cc2ccc(C)cc2F)cc(=O)c(C(=O)O)c1-c1ccc(Cl)c(Cl)c1 [Compound 67, 2-(3,4-dichlorophenyl)-1-3ethyl-6-[(2-fluoro-4-methyl-phenyl)methyl]-4-oxo-pyridine-3-3-carboxylic acid]
0: Pre-emergence Test, percentage damage caused to the plant (five-point scale), ZEAMX (Zea mays (ZEAMX) [5]; Rate 250 g/Ha) | Pre-emergence Test, percentage damage caused to the plant (five-point scale), AMARE ([6]; Rate 250 g/Ha) | Pre-emergence Test, percentage damage caused to the plant (five-point scale), AMAPA ([7]; Rate 250 g/Ha) | Pre-emergence Test, percentage damage caused to the plant (five-point scale), IPOHE ([8]; Rate 250 g/Ha) | percentage damage caused to the plant, AMAPA ([1]; rate 250 g/Ha) | percentage damage caused to the plant, SETFA (Setaria faberi (SETFA); rate 250 g/Ha) | percentage damage caused to the plant, ECHCG ([2]; rate 250 g/Ha)

CCn1c(Cc2cccc(OC)c2)cc(=O)c(C(=O)O)c1-c1ccc(Cl)c(Cl)c1 [Compound 9, 2-(3,4-dichlorophenyl)-1-ethyl-6-[(3-methoxyphenyl)methyl]-4-oxo-pyridine-3-carboxylic acid]
0: Pre-emergence Test, percentage damage caused to the plant (five-point scale), ZEAMX (Zea mays (ZEAMX) [5]; Rate 250 g/Ha) | Pre-emergence Test, percentage damage caused to the plant (five-point scale), AMARE ([6]; Rate 250 g/Ha) | Pre-emergence Test, percentage damage caused to the plant (five-point scale), IPOHE ([8]; Rate 250 g/Ha) | Pre-emergence Test, percentage damage caused to the plant (five-point scale), ECHCG ([9]; Rate 250 g/Ha) | percentage damage caused to the plant, SETFA (Setaria faberi (SETFA); rate 250 g/Ha) | percentage damage caused to the plant, ECHCG ([2]; rate 250 g/Ha) | percentage damage caused to the plant, AMARE ([3]; rate 250 g/Ha) | percentage damage caused to the plant, ZEAMX (Zea mays (ZEAMX) [4]; rate 250 g/Ha)

CCn1c(Cc2cccc(C(F)(F)F)c2)cc(=O)c(C(=O)O)c1-c1ccc(Cl)c(Cl)c1 [Compound 8, 2-(3,4-dichlorophenyl)-1-ethyl-4-oxo-6-[[3-(trifluoromethyl)phenyl]methyl]pyridine-3-carboxylic acid]
0: percentage damage caused to the plant, AMAPA ([1]; rate 250 g/Ha) | percentage damage caused to the plant, SETFA (Setaria faberi (SETFA); rate 250 g/Ha) | percentage damage caused to the plant, ECHCG ([2]; rate 250 g/Ha) | percentage damage caused to the plant, AMARE ([3]; rate 250 g/Ha) | percentage damage caused to the plant, ZEAMX (Zea mays (ZEAMX) [4]; rate 250 g/Ha)

CCn1c(Cc2cc(Cl)cc(Cl)c2)cc(=O)c(C(=O)O)c1-c1ccc(Cl)c(Cl)c1 [Compound 10, 2-(3,4-dichlorophenyl)-6-[(3,5-dichlorophenyl)methyl]-1-ethyl-4-oxo-pyridine-3-carboxylic acid]
0: percentage damage caused to the plant, SETFA (Setaria faberi (SETFA); rate 1000 g/Ha) | percentage damage caused to the plant, ECHCG ([2]; rate 1000 g/Ha) | percentage damage caused to the plant, ZEAMX (Zea mays (ZEAMX) [4]; rate 1000 g/Ha)

CCn1c(Cc2ccccc2C)cc(=O)c(C(=O)O)c1-c1ccc(Cl)c(Cl)c1 [Compound 15, 2-(3,4-dichlorophenyl)-1-ethyl-6-(o-tolylmethyl)-4-oxo-pyridine-3-carboxylic acid]
0: percentage damage caused to the plant, SETFA (Setaria faberi (SETFA); rate 1000 g/Ha) | percentage damage caused to the plant, ECHCG ([2]; rate 1000 g/Ha)

CCn1c(Cc2cc(C)on2)cc(=O)c(C(=O)O)c1-c1ccc(Cl)c(Cl)c1 [Compound 135, 2-(3,4-dichlorophenyl)-1-ethyl-6-[(5-methylisoxazol-3-yl)methyl]-4-oxo-pyridine-3-carboxylic acid]
0: Pre-emergence Test, percentage damage caused to the plant (five-point scale), ZEAMX (Zea mays (ZEAMX) [5]; Rate 250 g/Ha) | Pre-emergence Test, percentage damage caused to the plant (five-point scale), AMAPA ([7]; Rate 250 g/Ha) | Pre-emergence Test, percentage damage caused to the plant (five-point scale), IPOHE ([8]; Rate 250 g/Ha) | Pre-emergence Test, percentage damage caused to the plant (five-point scale), ECHCG ([9]; Rate 250 g/Ha) | percentage damage caused to the plant, SETFA (Setaria faberi (SETFA); rate 250 g/Ha) | percentage damage caused to the plant, ECHCG ([2]; rate 250 g/Ha)

CCn1c(Cc2ccccc2Cl)cc(=O)c(C(=O)O)c1-c1ccc(Cl)c(Cl)c1 [Compound 16, 6-[(2-chlorophenyl)methyl]-2-(3,4-dichlorophenyl)-1-ethyl-4-oxo-pyridine-3-carboxylic acid]
0: Pre-emergence Test, percentage damage caused to the plant (five-point scale), IPOHE ([8]; Rate 1000 g/Ha) | percentage damage caused to the plant, AMAPA ([1]; rate 1000 g/Ha) | Pre-emergence Test, percentage damage caused to the plant (five-point scale), ECHCG ([9]; Rate 1000 g/Ha) | percentage damage caused to the plant, SETFA (Setaria faberi (SETFA); rate 1000 g/Ha) | percentage damage caused to the plant, ECHCG ([2]; rate 1000 g/Ha) | percentage damage caused to the plant, AMARE ([3]; rate 1000 g/Ha) | percentage damage caused to the plant, ZEAMX (Zea mays (ZEAMX) [4]; rate 1000 g/Ha)

CCOc1cccc(Cc2cc(=O)c(C(=O)O)c(-c3ccc(Cl)c(Cl)c3)n2CC)n1 [Compound 127, 2-(3,4-dichlorophenyl)-6-[(6-ethoxy-2-pyridyl)methyl]-1-ethyl-4-oxo-pyridine-3-carboxylicacid]
0: Pre-emergence Test, percentage damage caused to the plant (five-point scale), ZEAMX (Zea mays (ZEAMX) [5]; Rate 250 g/Ha) | Pre-emergence Test, percentage damage caused to the plant (five-point scale), AMARE ([6]; Rate 250 g/Ha) | Pre-emergence Test, percentage damage caused to the plant (five-point scale), AMAPA ([7]; Rate 250 g/Ha) | Pre-emergence Test, percentage damage caused to the plant (five-point scale), IPOHE ([8]; Rate 250 g/Ha) | Pre-emergence Test, percentage damage caused to the plant (five-point scale), ECHCG ([9]; Rate 250 g/Ha) | percentage damage caused to the plant, SETFA (Setaria faberi (SETFA); rate 250 g/Ha) | percentage damage caused to the plant, ECHCG ([2]; rate 250 g/Ha) | percentage damage caused to the plant, ZEAMX (Zea mays (ZEAMX) [4]; rate 250 g/Ha)
